As usually defined, the bioavailability is dose-corrected exposure relative to a reference, in per cent.

Here are results for three compounds from US11510903B2, “Synergic pharmaceutical composition of the active enantiomer (S)-ketorolac and Gabapentin for the treatment of neuropathic pain” (priority 2018, dated 2022).

Data set [1] in a line: Relative pharmacological potency of S-Ketorolac tromethamine versus Rac Ketorolac and AA. As to conditions: fold more potent.
For data set [2] the following is noted: fold more active; cited from earlier work.
Data set [3] deals with rats with a chronic constriction injury (neuropathic pain). The data set can be described thus: Von Frey test (mechanical hyperalgesia, 15 g filament) in rats with chronic constriction injury of the sciatic nerve. It counts as in vivo, rat (male Wistar). As to conditions: oral. The source says:
(§1) Said experimental model is based on the unilateral ligature of the sciatic nerve, which produces a chronic constriction injury, (CCI). This experimental model has shown itself to be sensitive to a number of drugs that are used clinically for the symptomatic treatment of neuropathic pain. […] The following observed behaviors are indicative of neuropathic pain: (1) autotomy, the animal injures itself in the denervated leg, (2) allodynia, withdrawal of the leg in the face of harmless stimulus that may be mechanical or cold (acetone), (3) hyperalgesia, violent withdrawal of the leg in the face of a moderate thermal or mechanical stimulus (Von Frey filaments 15 g). These aforementioned parameters have been widely used on pharmacology and the modulation of neuropathic pain. The tests that are most used to determine allodynia and hyperalgesia are: mechanical hyperalgesia with the von Frey filaments, the cold allodynia with acetone, thermal hyperalgesia with the plantar test and mechanical hyperalgesia with the pinprick test.
Male Wistar rats [Crl:(WI)fBR], with a body weight of 120-140 g at the start of the experimental phase, which weighed 160-180 g when the drugs were administered, were used for the particular study in this invention. The animals were kept in polycarbonate boxes under conditions of controlled temperature and light, with 12-hour cycles of light/dark and ad limitum water and food intake. All the experiments were carried out during the light phase. […]
The degree of hyperalgesia and allodynia in the rats submitted to the sciatic nerve surgery was determined by means of the Von Frey test and the acetone test. […]
The rats were placed on a metal screen in a box of transparent acrylic where they remained for at least 10 minutes to adapt before the test. The response was determined to a tactile stimulus applied to the plantar surface of the rear right leg using the 15 g von Frey filament. […]

Data set [4] shares this test system. The data set can be described thus: Acetone test (cold allodynia) in rats with chronic constriction injury of the sciatic nerve. Type of data set: in vivo, rat (male Wistar). As to conditions: oral.
Excerpt: as §1
Male Wistar rats [Crl:(WI)fBR], with a body weight of 120-140 g at the start of the experimental phase, which weighed 160-180 g when the drugs were administered, were used for the particular study in this invention. The animals were kept in polycarbonate boxes under conditions of controlled temperature and light, with 12-hour cycles of light/dark and ad limitum water and food intake. All the experiments were carried out during the light phase. The animals were used and managed following the guidelines established in the Ethical Guidelines for Pain Research of the International Association for the Study of Pain, and following a protocol approved by the Local Committee of Ethics for the Management of Laboratory Animals. The number of experimental animals was kept to a minimum (n=6 to 8), and, at the end of the experimental determinations, the animals were sacrificed using carbon dioxide.
The model for ICC neuropathic pain described by Bennett and Xie in 1988 was standardized. The rats were anesthetized and the sciatic nerve of the rear right leg was immediately dissected, by means of an incision, dissecting the biceps femoris to locate the part that is most proximal to the trifurcation of the sciatic nerve and apply four loose ligatures with silk thread. At the end of the surgery, the muscle was sutured with absorbable thread and the skin with silk thread. The surgery of the rats falsely operated on (Sham) was done in the same way, however, the sciatic nerve was not tied. This entire procedure was performed under aseptic conditions.
The degree of hyperalgesia and allodynia in the rats submitted to the sciatic nerve surgery was determined by means of the Von Frey test and the acetone test. These determinations were made a day before the surgery and, 7 days after the surgery a time-course of 180 minutes was done for both the control (saline) and for the compounds that were administered orally, in the study, both singly and combined, to evidence the hyperalgesia and allodynia that were present. Then a time-course was made of hyperalgesia and allodynia, but now in rats with chronic treatment (1 administration/12 hours), carrying out the determinations of both hyperalgesia and allodynia 30 minutes after the morning administration of the treatments being studied and in the following period: 0, 1, 3, 5 and 7 days (14 administrations in total).
At the end of the Von Frey test, the rats were left to rest on the metal screen and after a 5-10 min period, approximately 0.1 mL of acetone was applied to the plantar surface of the rear legs using a syringe with a flexible plastic tip, below the metal grating. The time (seconds) the animal remained with its leg removed from the surface was recorded with a chronometer for 60 s after exposure to the acetone. The response time of the rear right leg was measured and three replications were made at intervals of at least 2 minutes. […]

In data set [5] the test system is rats (lethal effects vs anti-allodynic effects). Briefly: Therapeutic index (DL50/DE50) and safety margin study in rats. It counts as in vivo, rat. As to conditions: 24 h post-treatment. As for the experimental part: As further support for this invention, the therapeutic index study was also performed on rats 24 h post-treatment, which is defined as the quotient of DL50 (24 h)/DE50. From said analysis and calculation, we get that the higher the result, the safer the drug, as this indicates the number of times it is necessary to increase DE50 for it to be turned into DL50 in the population being analyzed.
In other words, in a combination of said active ingredients, the CDR (for desired effects and lethal effects) was farther apart, therefore S-Ketorolac is safer in combination, as these variables are much farther apart. […] There is less distance between the CDR (desired effects and lethal effects) of the compound alone, than between the CDR (desired effects and toxic effects) of S-Ketorolac in combination with gabapentin.

For data set [6] the following is noted: cited from earlier work.
Where [7] appears, read: 31.6 mg/kg gabapentin alone, 1.5 h after administration.

In the case of `NC(CO)(CO)CO.O=C(c1ccccc1)c1ccc2n1CC[C@@H]2C(=O)O` [S-Ketorolac tromethamine, S-(−)-5-Benzoyl-2,3-dihydro-1H-pyrrolizine-1-carboxylic acid of 2-amino-2-(hydroxymethyl)-1,3-propanediol (1:1)], in data set [1], the “pharmacological potency relative to AA” value was 1037 times and the “pharmacological potency relative to Rac Ketorolac” value is 3.3 times. The “activity relative to the R form” value in data set [2] is on record as 75 times.
Regarding `O=C(c1ccccc1)c1ccc2n1CC[C@@H]2C(=O)O` [S-Ketorolac], the “maximal response for anti-hyperalgesic effects” value in data set [3] (31.6 mg/kg S-Ketorolac alone, 1 h after administration) is given as 43.33±5.58%. Besides, in data set [3] (doses 0.0316-100 mg/kg, no further increase above), the “dose up to which the anti-hyperalgesic effect increased with dose” value is reported as 3.16 mg/kg. Besides, the entries for the “anti-allodynic effect” value in data set [4] (0.0316 mg/kg S-Ketorolac) and in data set [4] (1.0 mg/kg S-Ketorolac) were “almost no anti-allodynic effects” and “maximum anti-allodynic effect”, respectively. The maximal anti-allodynic response in data set [4] (0.316 mg/kg S-Ketorolac alone, 30 minutes after administration) is 44.00±7.71%. For the same compound, in data set [5], the “therapeutic index, DL50 (24 h)/DE50” value is 18,541.
Take `NCC1(CC(=O)O)CCCCC1` [gabapentin]: in data set [3] (setting [7]), the “maximal response for anti-hyperalgesic effects” value is 71.67±12.50%. For the same compound, the “anti-allodynic effect” value in data set [4] (3.16 mg/kg gabapentin) was “practically does not generate anti-allodynic effects”; in data set [4] (31.6 mg/kg gabapentin alone, 3 h after administration) it was 23.70±6.90%; in data set [4] (177.8 mg/kg gabapentin), “maximum anti-allodynic effect”. Further, the maximal anti-allodynic response in data set [4] (setting [7]) amounted to 45.40±6.20%. Besides, the “time of maximal anti-allodynic response after administration (latency)” value in data set [4] (gabapentin 31.6 mg/kg alone or with 0.316 mg/kg S-Ketorolac) is listed as 1.5 h. The bioavailability in data set [6] (4,800 mg/day dose) is on record as 27%. Besides, the “metabolism” value in data set [6] (eliminated by renal excretion) is given as “not appreciably metabolized”. The “binding to plasma proteins” value in data set [6] (in vivo) is listed as 3%. Also, in data set [6] (patients with epilepsy), the “concentration in the cephalospinal liquid as share of the concentration in plasma” value is “approximately 20%”.
